Experimental data reported in PubChem BioAssay (NCI).
Several values for one entry are separate records, joined by “and”; a condition that tells them apart may be missing. Identical values can stand only once.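 Cells were grown in 96-well plates and exposed to each compound for 48 hours at five concentrations; endpoints were interpolated linearly between bracketing concentrations, or set to the highest concentration if not reached. GI50 = concentration required for 50% inhibition of growth. TGI: total growth inhibition.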

system: U251 CNS; experiment: growth of human tumour cells (NCI), 48 h

SMILES | GI50 | TGI
O=C(NCc1ccc(Cn2c(=O)sn(-c3ccccc3)c2=O)cc1)OCc1ccc2cccc(O)c2n1 | 1470 nM | 2.92 µM
COC(c1ccc(C(C)(C)C)cc1)(c1ccc(C(C)(C)C)cc1)c1ccc(C(C)(C)C)cc1 |  | > 100 µM
CC(C)c1[nH]nc2c1N=C(c1ccccc1Cl)c1cc([N+](=O)[O-])ccc1N2 | 6160 nM | > 25 µM
COc1ccc(-c2nccn2-c2ccc(OC)cc2)cc1 | 26300 nM | > 72.9 µM
O=C(/C=C/c1ccccc1)c1ccccc1 |  | > 10 µM
CC(C)[C@H](O)C(=O)N[C@@H](C)C(=O)N[C@@H]1C(=O)N(C)CCc2ccccc21 | > 100000 nM | > 100 µM
C=CC(=O)N1CN(C(=O)C=C)CN(C(=O)C=C)C1 | 4340 nM | 16.5 µM
COc1ccc(-c2cnnn2-c2nonc2-n2cccc2)cc1 | 344 nM | 8.41 µM
C#CCOc1cccc(Nc2ncnc3c(NC(=O)C=C)cccc23)c1 | 30400 nM | > 100 µM
O=C(/C(=C\c1c(-c2ccccc2)[nH]c2ccccc12)S(=O)(=O)c1ccccc1)c1ccccc1 | 8640 nM | > 100 µM
COc1ccc(C(=O)c2cc(OC)c(OC)c(OC)c2)cc1OC |  | > 100 µM
O=C1c2ccccc2-c2c1c1ccccc1c(=O)n2CCN1CCNCC1 | 1080 nM | 3.66 µM
CCCc1cc(=O)n2c(C(=O)Nc3ccc(Cl)cc3C)c(C(=O)Nc3ccc(F)cc3)sc2n1 | 1510 nM | 4.37 µM
Cc1ccc(OCCOCCOCCOCCOc2ccc(C)n(O)c2=S)c(=S)n1O | 63.2 nM | > 100 µM
COc1c(C)n(CCO)ccc1=O |  | > 100 µM
COc1ccc(-c2ccc3c(N4CCOC[C@@H]4C)nc(N4CCOC[C@@H]4C)nc3n2)cc1CO | 7.62 nM and 34.1 nM | > 54.1 µM

SMILES | GI50 | TGI
N[C@H](CCC(=O)N[C@@H](Cc1c[nH]c2ccccc12)C(=O)O)C(=O)O | > 100000 nM | > 100 µM
COC(=O)c1cc2c(o1)-c1nccc3c1c(nc1ccccc13)C2=O | 5050 nM | 38.9 µM
Nc1ccccc1O.O.O=C(O)C1[O][Sb][O]C1C(=O)O (centres undefined) | 13800 nM | 27.8 µM
O=C(c1ccco1)c1c(C(F)(F)F)n([O-])c2ccc(C(F)(F)F)cc2[n+]1=O | 217 nM | 0.536 µM
OC(c1cc(-c2ccc(C(F)(F)F)cc2)nc(C(F)(F)F)c1)C1CCCCN1 (centres undefined) | 1530 nM | 2.86 µM and 3.34 µM
O=C(Nc1cc(Nc2ncccc2-c2ncnc3nc[nH]c23)ccc1F)c1cc(C(F)(F)F)cc(C(F)(F)F)c1 | 2880 nM | > 10 µM
CC1(C)CN=C(NN=C(/C=C/c2ccc(C(F)(F)F)cc2)/C=C/c2ccc(C(F)(F)F)cc2)NC1 | 1200 nM | 2.47 µM
CCCCCCCCCCNC(=O)CI | 1580 nM | 3.14 µM
CCc1ccc2c(c1)C(=O)c1c-2n(CCCN=[N+]=[N-])c(=O)c2cc([N+](=O)[O-])ccc12 | > 50000 nM | > 50 µM
Cc1cc(N/N=C/c2ccccn2)nc2ccccc12 | 378 nM | 10.5 µM
Cn1c(=O)c2c(nc(C(=N)SCC(=O)O)n2C)n(C)c1=O |  | > 100 µM
COc1ccc(C(CC(=O)c2ccc3c(c2)OCO3)c2c(O)c3ccccc3oc2=O)cc1OC (centres undefined) |  | > 100 µM
Nc1cc(Br)c(-c2nnc(CCC(=O)c3nc4ccccc4[nH]3)o2)c(Br)c1 | 3500 nM | > 100 µM
CC(C)(C)[Si](C)(C)OC1[C@@H](CNC(=O)NC(=O)CCl)O[C@@H](n2cnc3c(N)ncnc32)[C@H]1O[Si](C)(C)C(C)(C)C (some centres undefined) | 849 nM | 1.58 µM
COc1ccc(/C(C)=C(\c2ccc(OCCN3CCCCCC3)cc2)c2ccc(OC(=O)C3CCCCC3)cc2)cc1 | 1010 nM | 3.62 µM
Cn1c(=O)nc2n(-c3cc(C(F)(F)F)cc(C(F)(F)F)c3)c3ccccc3nc-2c1=O |  | > 100 µM

system: UO-31 renal; experiment: growth of human tumour cells (NCI), 48 h

SMILES | GI50 | TGI
O=C(NCc1ccc(Cn2c(=O)sn(-c3ccccc3)c2=O)cc1)OCc1ccc2cccc(O)c2n1 | 571 nM | 1.92 µM
COC(c1ccc(C(C)(C)C)cc1)(c1ccc(C(C)(C)C)cc1)c1ccc(C(C)(C)C)cc1 |  | > 100 µM
CC(C)c1[nH]nc2c1N=C(c1ccccc1Cl)c1cc([N+](=O)[O-])ccc1N2 | 5460 nM | > 18.5 µM
COc1ccc(-c2nccn2-c2ccc(OC)cc2)cc1 | 23300 nM | > 82 µM
O=C(/C=C/c1ccccc1)c1ccccc1 |  | > 10 µM
CC(C)[C@H](O)C(=O)N[C@@H](C)C(=O)N[C@@H]1C(=O)N(C)CCc2ccccc21 | > 100000 nM | > 100 µM
C=CC(=O)N1CN(C(=O)C=C)CN(C(=O)C=C)C1 | 2190 nM | 8.53 µM
COc1ccc(-c2cnnn2-c2nonc2-n2cccc2)cc1 | 298 nM | 37.6 µM
C#CCOc1cccc(Nc2ncnc3c(NC(=O)C=C)cccc23)c1 | 13400 nM | 87.5 µM
O=C(/C(=C\c1c(-c2ccccc2)[nH]c2ccccc12)S(=O)(=O)c1ccccc1)c1ccccc1 | > 100000 nM | > 100 µM
COc1ccc(C(=O)c2cc(OC)c(OC)c(OC)c2)cc1OC |  | 39.4 µM
O=C1c2ccccc2-c2c1c1ccccc1c(=O)n2CCN1CCNCC1 | 2240 nM | 13 µM
CCCc1cc(=O)n2c(C(=O)Nc3ccc(Cl)cc3C)c(C(=O)Nc3ccc(F)cc3)sc2n1 | 7350 nM | 30.4 µM
Cc1ccc(OCCOCCOCCOCCOc2ccc(C)n(O)c2=S)c(=S)n1O | 17.7 nM | 4.14 µM
COc1c(C)n(CCO)ccc1=O |  | > 100 µM
COc1ccc(-c2ccc3c(N4CCOC[C@@H]4C)nc(N4CCOC[C@@H]4C)nc3n2)cc1CO | 3 nM and < 10 nM | 0.0758 µM and 0.0806 µM

SMILES | GI50 | TGI
N[C@H](CCC(=O)N[C@@H](Cc1c[nH]c2ccccc12)C(=O)O)C(=O)O | > 100000 nM | > 100 µM
COC(=O)c1cc2c(o1)-c1nccc3c1c(nc1ccccc13)C2=O | 5490 nM | 24.3 µM
Nc1ccccc1O.O.O=C(O)C1[O][Sb][O]C1C(=O)O (centres undefined) | 9340 nM | 24.5 µM
O=C(c1ccco1)c1c(C(F)(F)F)n([O-])c2ccc(C(F)(F)F)cc2[n+]1=O | 205 nM | 0.439 µM
OC(c1cc(-c2ccc(C(F)(F)F)cc2)nc(C(F)(F)F)c1)C1CCCCN1 (centres undefined) | 1440 nM and 4960 nM | 2.85 µM and 18.3 µM
O=C(Nc1cc(Nc2ncccc2-c2ncnc3nc[nH]c23)ccc1F)c1cc(C(F)(F)F)cc(C(F)(F)F)c1 | 319 nM | 1.99 µM
CC1(C)CN=C(NN=C(/C=C/c2ccc(C(F)(F)F)cc2)/C=C/c2ccc(C(F)(F)F)cc2)NC1 | 1520 nM | 2.94 µM
CCCCCCCCCCNC(=O)CI | 1580 nM | 3.04 µM
CCc1ccc2c(c1)C(=O)c1c-2n(CCCN=[N+]=[N-])c(=O)c2cc([N+](=O)[O-])ccc12 | > 50000 nM | > 50 µM
Cc1cc(N/N=C/c2ccccn2)nc2ccccc12 | 286 nM | 2.29 µM
Cn1c(=O)c2c(nc(C(=N)SCC(=O)O)n2C)n(C)c1=O |  | > 100 µM
COc1ccc(C(CC(=O)c2ccc3c(c2)OCO3)c2c(O)c3ccccc3oc2=O)cc1OC (centres undefined) |  | > 100 µM
Nc1cc(Br)c(-c2nnc(CCC(=O)c3nc4ccccc4[nH]3)o2)c(Br)c1 | 4060 nM | > 100 µM
CC(C)(C)[Si](C)(C)OC1[C@@H](CNC(=O)NC(=O)CCl)O[C@@H](n2cnc3c(N)ncnc32)[C@H]1O[Si](C)(C)C(C)(C)C (some centres undefined) | 436 nM | 1.13 µM
COc1ccc(/C(C)=C(\c2ccc(OCCN3CCCCCC3)cc2)c2ccc(OC(=O)C3CCCCC3)cc2)cc1 | 453 nM | 2.22 µM
Cn1c(=O)nc2n(-c3cc(C(F)(F)F)cc(C(F)(F)F)c3)c3ccccc3nc-2c1=O |  | > 100 µM
